In general, MIC refers to the smallest concentration in the dilution series that meets the test's criterion for growth inhibition. In general, IC50 refers to the concentration needed to halve the response being measured. The inhibition is the change of the read-out against control, counted positive when it falls.

Values after ≈ are worked out from the molar mass of the structure shown. Like-named read-outs stand apart in the source and are kept apart here.

This note sets out measurements from PMC10945739, “Exploring Cassia mimosoïdes as a promising natural source of steroids with potent anti-cancer, urease inhibition, and antimicrobial properties” (RSC Advances, 2024).

In one data set the test system is S. aureus. Description: Antibacterial activity, agar well diffusion method. It is filed as cell-based, Staphylococcus aureus. For orientation: A growth-free zone around the sample is the usual read-out of agar diffusion tests.
Another data set deals with H.pylori. Description: Antibacterial activity, agar well diffusion method. Format: cell-based, Helicobacter pylori. From the text: (§1) Antibacterial activity of the isolated and synthesized compounds was perform using agar well method. Three bacterial strains selected for this experiment were H.pylori, B. subtilis and S. aureus, for all of three strains compounds show good to mederate inhibition. […] The presence of H. pylori in the stomach has been associated with a range of gastric disorders, including peptic ulcers, gastritis, and an increased risk of gastric cancer. The bacterium's ability to manipulate the gastric environment through urease activity underscores its role in the development and progression of these conditions. Different studies have targeted H. pylori and its urease activity as potential avenues for therapeutic intervention and disease management (Fig. 4).
(§2) The agar well diffusion method evaluated every compound separately. Each sterile Petri plate was aseptically filled with 20 mL of the agar medium, which was then […]. The media then solidified at room temperature. Various bacterial strains were put to agar plates using a sterile cotton swab. A 6 mm-diameter well was drilled using a sterilized cork borer. Each isolated compound was dissolved in 1 mL of a 20% DMSO solution. In a well with a diameter of 6 mm, […] of the standard drug and isolated compounds were added. […] The zone of inhibition was graphed and quantified in millimeters.[20]

Another data set deals with Jack bean urease (Canavalia ensiformis, UniProt P07374). Description: biochemical. It is filed as biochemical. The procedure:
The inhibition potential of the isolated compounds against urease was investigated using a SpectraMax M2 reader using 96-well microplates.
The kinetic assay involved preparing varying concentrations of both the test compound and the substrate (urea), spanning 0 μM, 5 μM, 10 μM, 15 μM, and 20 μM. The resulting data was utilized to construct a Lineweaver–Burk plot.
In 96-well plates were incubated at 37 °C for 15 min, reaction mixtures consisting of 25 μL of test compounds (each 0.5 mM), 25 μL of enzyme solution (Jack bean urease) and 55 μL of buffers containing 20.79 mM urea. The indophenol method described by Weatherburn[21] was used to determine urease inhibitor activity by measuring ammonia production. Briefly, to each well were added 70 μL of alkaline reagent (0.5% w/v NaOH and 0.1% active chloride, NaOCl) and 45 μL of phenolic reagent (1% w/v phenol and 0.005% w/v sodium nitroprusside). The microplate reader (Molecular Devices, USA) was used to measure the increase in absorbance at 650 nm after 50 min. A final volume of 245 μL was required to perform all reactions in a triplicate. The results (absorbance change per minute) were processed using SoftMax Pro software (Molecular Devices, USA). All assays were performed at pH 6.8. Inhibition percentages were calculated from the formula% Inhibition = 100 − (Abs(sample)/Abs(control)) × 100where “A” is the absorbance of the “test well” as well as the “control”. Thiourea was used as a standard.

In data set [1] the test system is human HepG2 hepatic cancer cells. Kind of data set: MTT cell viability assay. Format: cell-based. The settings on record: HepG2, MTT, 48 hours, at 200 μg. As to the method: The human liver cells were cultivated in Dulbecco's modified Eagle medium (DMEM) in which 100 U mL^−1 penicillin, 10% fetal bovine and […] streptomycin were added and kept at 37 °C in a […] carbon dioxide induced humidified environment. The human liver cells prepared as per above procedure were then treated with synthesized compounds diluted to 0.05% DMSO concentration.
Using MTT assay, the % viability of cancer cells 36 was evaluated. According to the standard procedure, HepG2 cells were treated with various dosages of synthesized compounds for 48 hours each. The cells were then incubated for 4 hours at 37 °C with 10μ MTT reagent (5 mg mL^−1). Next, in 150 μL DMSO was added to dissolve formazan crystals. The λmax was recorded at 409 nm in a microplate reader (thermos scientific).
(In general: Formazan colour is commonly taken as a measure of viable cells.)

A further data set concerns B. subtilis. Description: Antibacterial activity, agar well diffusion method. Format: cell-based. The settings on record: Table S2; unit not given.
Excerpt: as §1, §2

Where [2] appears, read: Table S2 and b89, unit not given.

Jack bean urease, sequence (P07374 whole entry, looked up): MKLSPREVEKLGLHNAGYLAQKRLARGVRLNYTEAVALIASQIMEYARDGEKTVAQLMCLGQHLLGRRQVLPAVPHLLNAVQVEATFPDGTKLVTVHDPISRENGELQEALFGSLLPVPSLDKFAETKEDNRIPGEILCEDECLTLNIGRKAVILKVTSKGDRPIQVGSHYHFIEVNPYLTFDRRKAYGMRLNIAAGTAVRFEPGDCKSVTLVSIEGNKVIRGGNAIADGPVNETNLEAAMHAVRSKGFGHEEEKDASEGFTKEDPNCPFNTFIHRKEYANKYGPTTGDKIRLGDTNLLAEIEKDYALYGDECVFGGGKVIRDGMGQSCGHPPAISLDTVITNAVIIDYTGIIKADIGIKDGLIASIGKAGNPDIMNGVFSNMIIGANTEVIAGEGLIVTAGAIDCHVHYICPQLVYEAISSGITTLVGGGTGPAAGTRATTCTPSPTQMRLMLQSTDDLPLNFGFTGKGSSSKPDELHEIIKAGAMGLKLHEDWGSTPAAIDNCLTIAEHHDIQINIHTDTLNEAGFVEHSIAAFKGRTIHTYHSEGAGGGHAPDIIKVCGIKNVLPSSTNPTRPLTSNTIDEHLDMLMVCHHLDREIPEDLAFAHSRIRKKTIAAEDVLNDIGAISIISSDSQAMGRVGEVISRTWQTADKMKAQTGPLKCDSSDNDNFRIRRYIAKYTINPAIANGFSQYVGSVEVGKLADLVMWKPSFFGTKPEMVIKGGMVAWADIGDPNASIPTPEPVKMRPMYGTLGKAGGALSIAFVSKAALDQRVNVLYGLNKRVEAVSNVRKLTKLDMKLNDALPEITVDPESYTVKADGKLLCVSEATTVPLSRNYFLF
Experimental for S. aureus: The agar well diffusion method evaluated every compound separately. Each sterile Petri plate was aseptically filled with 20 mL of the agar medium, which was then autoclaved at 120 °C to destroy any germs. The media then solidified at room temperature. Various bacterial strains were put to agar plates using a sterile cotton swab. A 6 mm-diameter well was drilled using a sterilized cork borer. […] In a well with a diameter of 6 mm, 20 mL of the standard drug and isolated compounds were added. At 37 °C, the test plates were incubated for 24 hours. The test plates were incubated at 37 °C for 24 hours. The standard disc containing 50 mg of ciprofloxacin served as a positive control for antibacterial activity, and DMSO served as a negative control.

As to `C=C(CCC(=CC)C(C)C)C1CCC2C3=CCC4C(C)C(O)CCC4(C)C3CCC12C` (stereo not drawn) [Compound 1, 21-methylene-24-ethylidene lophenol], the MIC with S. aureus (Staphylococcus aureus, abstract, read-out: MIC against S. aur) was 0.12 µg/mL (≈ 0.283 µM); in the data set with H.pylori (Helicobacter pylori, abstract, read-out: MIC against H. pylori), 0.28 µg/mL (≈ 0.659 µM). For the same compound, the IC50 on Jack bean urease was 1020 ± 350 nM. Also, at Jack bean urease (pH 6.8, read-out: % Inhibition of urease), the inhibition at 500 µM was determined as 82.3%. In addition, the “mode of inhibition, Lineweaver–Burk plot” value at Jack bean urease (urea and compound 0–20 μM) is “competitive”.

In the case of `O=c1cc(-c2ccc(O)c(O)c2)oc2cc(O)c([C@@H]3O[C@H](CO)[C@@H](O)[C@H](O)[C@H]3O)c(O)c12` [Compound 7, Luteolin-6-C-β-D-glucopyranoside], in data set [1], the “% Viability” value turned out to be 97.94 ± 3.53%. Further, the “Antibacterial activity against B. subtilis” value with B. subtilis is 0.12. Besides, the “Antibacterial activity (MIC) against S. aureus” value with S. aureus (setting [2]) is reported as 0.78. The “Antibacterial activity (MIC) against H.Pylori” value in the data set on H.pylori (setting [2]) is 1.23. For the same compound, the IC50 was determined as 1220 ± 430 nM on Jack bean urease (pH 6.8, read-out: IC50 ± SEM, urease) and 1220 ± 430 nM at Jack bean urease (unit inferred, read-out: IC50, urease (printed in Fig. 6)). Also, the “% Inhibition of urease” value on Jack bean urease (test compounds each 0.5 mM, pH 6.8) stood at 81.57%.
